Source: patent publication US11673897B2, “Compounds for the treatment of kinase-dependent disorders” (Exelixis, Inc., priority 2018, dated 2023)

Legend:
Type in all cases: cell-based
AXL = AXL (Homo sapiens (Human), UniProt P30530); test: AXL autophosphorylation ELISA in A-172 cells; settings: cellular, Gas6-stimulated, phospho-AXL ELISA
Description: A-172 glioblastoma cells (ATCC #CRL-1620) were seeded at 2.5×10^5 cells/well onto 24-well plates (Greiner #662165), in […] (Thermo Fisher #11995-040) containing 10% FBS (Thermo Fisher #26140-079), […] (Thermo Fisher #11140-050), […] (Thermo Fisher #35050-061), and 1% Penicillin Streptomycin (Thermo Fisher #15140-122). A-172 cells were incubated at 37° C., […] for 24 hand then starved for 24 h in serum-free medium. Test compounds were serially diluted to produce an 8-point dose curve in fresh serum-free medium to a final concentration of 0.3% DMSO (vehicle) and added to the cells and incubated for 1 h. Cells were then stimulated with 1 μg/mL recombinant human Gas6 (R&D Systems #885-GSB-500) for 15 min, washed with cold PBS, and immediately lysed with 150 μL of cold 1× lysis buffer [20 mM Tris, 137 mM sodium chloride, 2 mM EDTA, 10% glycerol, 1% NP-40 alternative, 1 mM activated sodium orthovanadate, 1 mM PefaBloc SC (Sigma-Aldrich #11429868001), protease/phosphatase inhibitor tablet (Thermo Fisher #A32959)]. Lysates were collected and 100 μL/well added into the human phospho-AXL DuoSet IC ELISA (R&D Systems #DYC2228-2). Assay was performed according to manufacturer's instructions and sample phospho-AXL concentrations were extrapolated using human phospho-AXL control (R&D Systems #841645) as a standard. Positive control wells (100% activity) contained Gas6-stimulated, DMSO-treated cell lysates. Negative control wells (0% activity) contained Gas6-stimulated, reference inhibitor-treated cell lysates. IC50 values were calculated by nonlinear regression analysis using a 4-parameter logistic curve fit in ActivityBase XE (IDBS).

Mer = Mer (Homo sapiens (Human), UniProt Q12866); test: Mer autophosphorylation ELISA in transient transfected 293A cells; settings: cellular, MERTK-transfected 293A cells, phospho-Mer ELISA
Mer, sequence (Q12866 21-999): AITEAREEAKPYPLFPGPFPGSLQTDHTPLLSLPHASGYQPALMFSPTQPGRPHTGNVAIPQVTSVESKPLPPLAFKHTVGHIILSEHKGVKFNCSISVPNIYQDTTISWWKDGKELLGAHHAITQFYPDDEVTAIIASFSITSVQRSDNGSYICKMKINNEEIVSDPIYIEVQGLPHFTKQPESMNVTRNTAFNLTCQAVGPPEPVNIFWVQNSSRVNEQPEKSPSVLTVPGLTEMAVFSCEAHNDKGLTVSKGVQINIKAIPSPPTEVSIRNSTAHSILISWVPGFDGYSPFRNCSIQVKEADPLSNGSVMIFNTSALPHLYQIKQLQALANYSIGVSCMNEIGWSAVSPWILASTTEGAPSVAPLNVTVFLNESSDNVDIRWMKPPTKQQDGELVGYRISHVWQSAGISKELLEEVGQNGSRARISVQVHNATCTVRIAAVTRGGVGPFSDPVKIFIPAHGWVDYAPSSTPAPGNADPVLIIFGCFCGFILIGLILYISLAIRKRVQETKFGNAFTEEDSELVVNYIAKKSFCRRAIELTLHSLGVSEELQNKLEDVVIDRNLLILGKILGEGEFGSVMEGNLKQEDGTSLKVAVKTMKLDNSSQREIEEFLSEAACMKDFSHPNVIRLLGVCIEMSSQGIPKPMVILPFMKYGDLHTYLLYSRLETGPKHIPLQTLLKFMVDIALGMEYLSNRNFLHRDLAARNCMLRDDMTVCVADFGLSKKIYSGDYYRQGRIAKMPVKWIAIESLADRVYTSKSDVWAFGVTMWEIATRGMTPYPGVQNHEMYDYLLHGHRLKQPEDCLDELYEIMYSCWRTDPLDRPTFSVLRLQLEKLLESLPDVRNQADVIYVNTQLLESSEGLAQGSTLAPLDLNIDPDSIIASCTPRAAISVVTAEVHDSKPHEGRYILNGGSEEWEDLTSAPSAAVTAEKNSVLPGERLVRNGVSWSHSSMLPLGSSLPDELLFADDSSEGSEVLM
Description: 293A cells (Thermo Fisher #R70507) were seeded at 1.5×10^6 cells/well onto 100 mm dish (Greiner #664169), in DMEM (Thermo Fisher #11995-040) containing 10% FBS (Thermo Fisher #26140-079), 1% MEM NEAA (Thermo Fisher #11140-050), 1% GlutaMax (Thermo Fisher #35050-061), and 1% Penicillin Streptomycin (Thermo Fisher #15140-122). 293A cells were incubated at 37° C., 5% CO2 for 24 h and then transfected with 6 μg MERTK DNA (Genecopoeia #EX-Z8208-M02) using TransIT LT1 transfection reagent (Mirus-Bio #MIR2305). After 24 h incubation, the transfected 293A cells were seeded at 1×10^5 cells/well onto 96-well plates (Corning #3904) in DMEM growth medium overnight. Test compounds were serially diluted to produce an 8-point dose curve in fresh serum-free medium to a final concentration of 0.3% DMSO (vehicle) and added to the cells and incubated for 1 h. Cells were then immediately lysed with 150 μL of cold 1× lysis buffer [20 mM Tris, 137 mM sodium chloride, 2 mM EDTA, 10% glycerol, 1% NP-40 alternative, 1 mM activated sodium orthovanadate, 1 mM PefaBloc SC (Sigma-Aldrich #11429868001), protease/phosphatase inhibitor tablet (Thermo Fisher #A32959)]. Lysates were clarified by centrifugation and 50 μL/well added into the human phospho-Mer DuoSet IC ELISA (R&D Systems #DYC2579-2). Assay was performed according to manufacturer's instructions and sample phospho-Mer concentrations were extrapolated using human phospho-Mer control (R&D Systems #841793) as a standard. Positive control wells (100% activity) contained DMSO-treated cell lysates. Negative control wells (0% activity) contained reference inhibitor-treated cell lysates. IC50 values were calculated by nonlinear regression analysis using a 4-parameter logistic curve fit in ActivityBase XE (IDBS).

Met = Met (Homo sapiens (Human), UniProt P08581); test: Met autophosphorylation ELISA in PC-3 cells; settings: cellular, HGF-stimulated, phospho-Met ELISA, read-out: c-Met IC50
Met, sequence (P08581 25-1390): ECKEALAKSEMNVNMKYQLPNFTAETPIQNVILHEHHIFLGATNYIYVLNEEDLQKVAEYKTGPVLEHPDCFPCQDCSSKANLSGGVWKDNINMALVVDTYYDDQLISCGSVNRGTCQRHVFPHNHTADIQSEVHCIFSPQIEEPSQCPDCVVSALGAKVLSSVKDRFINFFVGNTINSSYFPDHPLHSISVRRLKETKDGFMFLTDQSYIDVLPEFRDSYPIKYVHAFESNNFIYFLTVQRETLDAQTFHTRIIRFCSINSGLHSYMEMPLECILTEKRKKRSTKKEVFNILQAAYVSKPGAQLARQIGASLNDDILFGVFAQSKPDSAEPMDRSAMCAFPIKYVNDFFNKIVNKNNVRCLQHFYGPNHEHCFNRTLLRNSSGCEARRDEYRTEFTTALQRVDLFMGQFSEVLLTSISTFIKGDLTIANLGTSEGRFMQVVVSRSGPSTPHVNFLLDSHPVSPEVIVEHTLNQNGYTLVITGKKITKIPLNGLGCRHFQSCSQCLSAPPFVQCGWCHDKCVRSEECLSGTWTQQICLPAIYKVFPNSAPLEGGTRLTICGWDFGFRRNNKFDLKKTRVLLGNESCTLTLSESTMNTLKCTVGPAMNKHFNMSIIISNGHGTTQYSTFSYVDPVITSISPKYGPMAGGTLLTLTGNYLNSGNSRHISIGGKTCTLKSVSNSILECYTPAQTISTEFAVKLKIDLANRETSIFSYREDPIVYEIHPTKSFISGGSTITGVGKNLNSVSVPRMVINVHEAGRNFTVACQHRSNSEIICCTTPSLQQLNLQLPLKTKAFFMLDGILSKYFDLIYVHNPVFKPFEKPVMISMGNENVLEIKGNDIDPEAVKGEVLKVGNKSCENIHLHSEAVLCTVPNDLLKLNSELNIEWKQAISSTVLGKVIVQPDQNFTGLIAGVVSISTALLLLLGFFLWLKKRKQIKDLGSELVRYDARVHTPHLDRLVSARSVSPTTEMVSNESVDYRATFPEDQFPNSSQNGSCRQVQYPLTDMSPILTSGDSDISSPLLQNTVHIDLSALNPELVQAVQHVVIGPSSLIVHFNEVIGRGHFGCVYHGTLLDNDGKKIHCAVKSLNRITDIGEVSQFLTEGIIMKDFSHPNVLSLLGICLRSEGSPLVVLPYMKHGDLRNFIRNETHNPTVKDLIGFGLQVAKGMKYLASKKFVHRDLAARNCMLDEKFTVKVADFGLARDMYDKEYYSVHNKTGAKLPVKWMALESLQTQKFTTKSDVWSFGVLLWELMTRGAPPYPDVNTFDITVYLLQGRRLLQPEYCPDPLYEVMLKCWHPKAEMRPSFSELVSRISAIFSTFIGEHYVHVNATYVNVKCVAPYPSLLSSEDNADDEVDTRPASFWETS
Description: PC-3 prostate cancer cells (ATCC #CRL-1435) were seeded at 4×10^4 cells/well onto 24-well plates (Greiner #662165), in DMEM (Thermo Fisher #11995-040) containing 10% FBS (Thermo Fisher #26140-079), 1% MEM NEAA (Thermo Fisher #11140-050), 1% GlutaMax (Thermo Fisher #35050-061), and 1% Penicillin Streptomycin (Thermo Fisher #15140-122). PC-3 cells were incubated at 37° C., 5% CO2 for 24 h and then starved for 3 h in serum-free medium. Test compounds were serially diluted to produce an 8-point dose curve in fresh serum-free medium to a final concentration of 0.3% DMSO (vehicle) and added to the cells and incubated for 1 h. Cells were then stimulated with 100 ng/mL recombinant human HGF (R&D Systems #294-HG-250) for 10 min, washed with cold PBS, and immediately lysed with 130 μL of cold 1× lysis buffer [20 mM Tris, 137 mM sodium chloride, 2 mM EDTA, 10% glycerol, 1% NP-40 alternative, 1 mM activated sodium orthovanadate, 1 mM PefaBloc SC (Sigma-Aldrich #11429868001), and protease/phosphatase inhibitor tablet (Thermo Fisher #A32959)]. Lysates were clarified by centrifugation and 100 μL/well added into the PathScan phospho-Met (panTyr) Sandwich ELISA (Cell Signaling Technology #7333). Assay was performed according to manufacturer's instructions. Positive control wells (100% activity) contained HGF-stimulated, DMSO-treated cell lysates. Negative control wells (0% activity) contained HGF-stimulated, reference inhibitor-treated cell lysates. IC50 values were calculated by nonlinear regression analysis using a 4-parameter logistic curve fit in ActivityBase XE (IDBS).

KDR = KDR (Homo sapiens (Human), UniProt P35968); test: KDR autophosphorylation ELISA in HUVEC cells; settings: cellular, VEGF165-stimulated, phospho-KDR ELISA
KDR, sequence (P35968 20-1356): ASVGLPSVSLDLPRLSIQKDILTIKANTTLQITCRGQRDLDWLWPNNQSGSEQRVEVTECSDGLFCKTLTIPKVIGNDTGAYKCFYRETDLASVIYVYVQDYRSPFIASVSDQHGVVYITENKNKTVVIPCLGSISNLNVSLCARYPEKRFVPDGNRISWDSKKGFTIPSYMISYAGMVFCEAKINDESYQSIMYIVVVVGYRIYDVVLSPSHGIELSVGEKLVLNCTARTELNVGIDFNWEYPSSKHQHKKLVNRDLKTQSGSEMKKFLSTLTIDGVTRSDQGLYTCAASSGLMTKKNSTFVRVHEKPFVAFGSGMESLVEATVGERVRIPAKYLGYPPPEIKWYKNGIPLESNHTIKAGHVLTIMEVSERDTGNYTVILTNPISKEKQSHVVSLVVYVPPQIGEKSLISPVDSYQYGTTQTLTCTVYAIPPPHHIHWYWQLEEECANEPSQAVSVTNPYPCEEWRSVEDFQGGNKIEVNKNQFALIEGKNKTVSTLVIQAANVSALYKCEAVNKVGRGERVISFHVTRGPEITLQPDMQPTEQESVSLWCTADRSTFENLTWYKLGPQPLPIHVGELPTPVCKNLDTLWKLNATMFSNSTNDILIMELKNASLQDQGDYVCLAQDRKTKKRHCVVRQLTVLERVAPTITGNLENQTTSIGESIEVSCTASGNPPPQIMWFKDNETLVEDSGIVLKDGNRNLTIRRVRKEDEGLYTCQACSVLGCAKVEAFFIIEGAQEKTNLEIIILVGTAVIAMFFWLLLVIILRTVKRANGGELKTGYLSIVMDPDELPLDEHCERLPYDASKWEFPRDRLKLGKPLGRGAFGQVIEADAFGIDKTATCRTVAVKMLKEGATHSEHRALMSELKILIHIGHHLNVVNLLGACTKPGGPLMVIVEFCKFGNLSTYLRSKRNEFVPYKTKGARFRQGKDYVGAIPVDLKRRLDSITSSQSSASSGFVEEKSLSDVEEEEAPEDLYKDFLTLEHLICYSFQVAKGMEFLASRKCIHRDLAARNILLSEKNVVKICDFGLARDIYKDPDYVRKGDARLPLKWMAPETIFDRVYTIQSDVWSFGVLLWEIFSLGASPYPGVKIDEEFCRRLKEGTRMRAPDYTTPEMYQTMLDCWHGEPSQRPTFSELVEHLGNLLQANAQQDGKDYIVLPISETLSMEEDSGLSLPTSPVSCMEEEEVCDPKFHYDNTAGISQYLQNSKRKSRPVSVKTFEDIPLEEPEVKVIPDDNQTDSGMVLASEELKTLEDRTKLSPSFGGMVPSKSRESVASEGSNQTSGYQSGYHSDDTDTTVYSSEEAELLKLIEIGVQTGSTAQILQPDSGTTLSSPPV
Description: Human umbilical vein endothelial cells or HUVEC (Lonza #C2519A) were seeded at 2×10^4 cells/well onto 96-well plates (Corning #3904), in EGM-2 growth medium (Lonza #CC-3162) containing 1% Penicillin Streptomycin (Thermo Fisher #15140-122). HUVEC cells were incubated at 37° C., 5% CO2 for 24 h and then starved for 24 h in serum-free EBM-2 basal medium (Lonza #CC-3156) containing 1% Penicillin Streptomycin. Test compounds were serially diluted to produce an 8-point dose curve in fresh serum-free medium to a final concentration of 0.3% DMSO (vehicle) and added to the cells and incubated for 1 h. Cells were then stimulated with 100 ng/mL recombinant human VEGF165 (R&D Systems #293-VE-500) for 5 min, washed with cold PBS, and immediately lysed with 130 μL of cold 1× lysis buffer [20 mM Tris, 137 mM sodium chloride, 2 mM EDTA, 10% glycerol, 1% NP-40 alternative, 1 mM activated sodium orthovanadate, 1 mM PefaBloc SC (Sigma-Aldrich #11429868001), protease/phosphatase inhibitor tablet (Thermo Fisher #A32959)]. Lysates were collected and 100 μL/well added into the human phospho-KDR DuoSet IC ELISA (R&D Systems #DYC1766-2). Assay was performed according to manufacturer's instructions and sample phospho-KDR concentrations were extrapolated using human phospho-KDR control (R&D Systems #841421) as a standard. Positive control wells (100% activity) contained VEGF165-stimulated, DMSO-treated cell lysates. Negative control wells (0% activity) contained non-stimulated cell lysates. IC50 values were calculated by nonlinear regression analysis using a 4-parameter logistic curve fit in ActivityBase XE (IDBS).

AXL, sequence (P30530 26-894): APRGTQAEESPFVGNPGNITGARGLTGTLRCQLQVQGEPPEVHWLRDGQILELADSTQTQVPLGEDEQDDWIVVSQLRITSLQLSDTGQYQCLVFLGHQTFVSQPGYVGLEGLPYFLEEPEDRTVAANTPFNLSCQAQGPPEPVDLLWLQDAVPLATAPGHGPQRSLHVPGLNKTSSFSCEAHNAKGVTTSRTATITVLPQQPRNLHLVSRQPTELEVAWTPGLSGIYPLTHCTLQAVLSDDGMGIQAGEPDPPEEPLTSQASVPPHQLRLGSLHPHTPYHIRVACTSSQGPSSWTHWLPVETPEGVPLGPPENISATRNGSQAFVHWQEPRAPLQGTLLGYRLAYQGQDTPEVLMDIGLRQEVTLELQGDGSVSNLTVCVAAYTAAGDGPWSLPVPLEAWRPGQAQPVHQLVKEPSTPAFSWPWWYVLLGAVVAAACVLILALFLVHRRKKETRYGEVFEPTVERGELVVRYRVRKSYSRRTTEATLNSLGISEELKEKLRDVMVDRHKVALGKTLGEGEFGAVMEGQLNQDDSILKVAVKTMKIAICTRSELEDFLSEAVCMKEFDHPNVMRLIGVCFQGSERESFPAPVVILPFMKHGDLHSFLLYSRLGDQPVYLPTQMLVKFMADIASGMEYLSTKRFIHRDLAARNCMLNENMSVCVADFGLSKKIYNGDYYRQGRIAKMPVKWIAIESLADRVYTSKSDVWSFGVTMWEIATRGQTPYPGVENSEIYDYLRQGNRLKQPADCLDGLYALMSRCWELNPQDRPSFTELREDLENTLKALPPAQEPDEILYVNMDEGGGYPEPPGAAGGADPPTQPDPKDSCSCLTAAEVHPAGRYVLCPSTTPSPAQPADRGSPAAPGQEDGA

SMILES | IC50 (AXL) | IC50 (Mer) | IC50 (Met) | IC50 (KDR)
COc1cc2nccc(Oc3ncc(NC(=O)C4(C(=O)Nc5ccc(F)cc5)CC4)cc3F)c2cc1-c1nnco1 [Compound 67, 1-N′-[5-Fluoro-6-[7-methoxy-6-(1,3,4-oxadiazol-2-yl)quinolin-4-yl]oxypyridin-3-yl]-1-N-(4-fluorophenyl)cyclopropane-1,1-dicarboxamide] | 10 to 100 nM | 10 to 100 nM | 10 to 100 nM | > 300 nM
COc1cc2nccc(Oc3ncc(NC(=O)C4(C(=O)Nc5ccc(F)cc5)CC4)cc3Cl)c2cc1-c1nnco1 [Compound 68, 1-N′-[5-Chloro-6-[7-methoxy-6-(1,3,4-oxadiazol-2-yl)quinolin-4-yl]oxypyridin-3-yl]-1-N-(4-fluorophenyl)cyclopropane-1,1-dicarboxamide] | 10 to 100 nM | 10 to 100 nM | 10 to 100 nM | > 300 nM
COc1nc2c(Oc3ncc(NC(=O)C4(C(=O)Nc5ccc(F)cc5)CC4)cc3F)ccnc2cc1OCC(O)CO (centres unmarked) [Compound 127, 1-N′-[6-[[7-(2,3-Dihydroxypropoxy)-6-methoxy-1,5-naphthyridin-4-yl]oxy]-5-fluoropyridin-3-yl]-1-N-(4-fluorophenyl)cyclopropane-1,1-dicarboxamide] | 10 to 100 nM | 100 to 300 nM | 10 to 100 nM | > 300 nM
COc1nc2c(Oc3ccc(NC(=O)C4(C(=O)Nc5ccc(F)cc5)CC4)cn3)ncnc2cc1OCCCN1CCOCC1 [Compound 155, 1-N-(4-Fluorophenyl)-1-N′-[6-[6-methoxy-7-(3-morpholin-4-ylpropoxy)pyrido[3,2-d]pyrimidin-4-yl]oxypyridin-3-yl]cyclopropane-1,1-dicarboxamide] | 10 to 100 nM | 100 to 300 nM | 100 to 300 nM | > 300 nM
CCNC(=O)c1cc2c(Oc3ncc(NC(=O)C4(C(=O)Nc5ccc(F)cc5)CC4)cc3F)ccnc2cc1OC [Compound 23, 1-N′-[6-[6-(Ethylcarbamoyl)-7-methoxyquinolin-4-yl]oxy-5-fluoropyridin-3-yl]-1-N-(4-fluorophenyl)cyclopropane-1,1-dicarboxamide] | 10 to 100 nM | 10 to 100 nM | 10 to 100 nM | > 300 nM
COc1cc2nccc(Oc3ncc(NC(=O)C4(C(=O)Nc5ccc(F)cc5)CC4)cc3F)c2cc1C(N)=O [Compound 21, 1-N′-[6-(6-Carbamoyl-7-methoxyquinolin-4-yl)oxy-5-fluoropyridin-3-yl]-1-N-(4-fluorophenyl)cyclopropane-1,1-dicarboxamide] | ≤ 10 nM | 10 to 100 nM | 10 to 100 nM | > 300 nM
COc1cc2nccc(Oc3ccc(NC(=O)C4(C(=O)Nc5ccc(F)cc5)CC4)c(OC)n3)c2nc1OC [Compound 86, 1-N′-[6-[(6,7-Dimethoxy-1,5-naphthyridin-4-yl)oxy]-2-methoxypyridin-3-yl]-1-N-(4-fluorophenyl)cyclopropane-1,1-dicarboxamide] | 10 to 100 nM | 10 to 100 nM | 100 to 300 nM | > 300 nM

Continued, values first:

IC50 (AXL) | IC50 (Mer) | IC50 (Met) | IC50 (KDR) | SMILES
10 to 100 nM | 10 to 100 nM | 10 to 100 nM | > 300 nM | COc1nc2c(Oc3ncc(NC(=O)C4(C(=O)Nc5ccc(F)cc5)CC4)cc3F)ccnc2cc1OCCCN1CCOCC1 [Compound 122, 1-N′-[5-Fluoro-6-[[6-methoxy-7-(3-morpholin-4-ylpropoxy)-1,5-naphthyridin-4-yl]oxy]pyridin-3-yl]-1-N-(4-fluorophenyl)cyclopropane-1,1-dicarboxamide]
10 to 100 nM | 10 to 100 nM | 10 to 100 nM | > 300 nM | COc1cc2nccc(Oc3ncc(NC(=O)C4(C(=O)Nc5ccc(F)cc5)CC4)cc3Cl)c2cc1-c1ncc[nH]1 [Compound 71, 1-N′-[5-Chloro-6-[6-(1H-imidazol-2-yl)-7-methoxyquinolin-4-yl]oxypyridin-3-yl]-1-N-(4-fluorophenyl)cyclopropane-1,1-dicarboxamide]
≤ 10 nM | 10 to 100 nM | 10 to 100 nM | > 300 nM | CNC(=O)c1cc2c(Oc3ncc(NC(=O)C4(C(=O)Nc5ccc(F)cc5)CC4)cc3F)ccnc2cc1OC [Compound 22, 1-N′-[5-Fluoro-6-[7-methoxy-6-(methylcarbamoyl)quinolin-4-yl]oxypyridin-3-yl]-1-N-(4-fluorophenyl)cyclopropane-1,1-dicarboxamide]
≤ 10 nM | 10 to 100 nM | 10 to 100 nM | > 300 nM | COc1cc2nccc(Oc3ncc(NC(=O)C4(C(=O)Nc5ccc(F)cc5)CC4)cc3F)c2cc1-c1ncc[nH]1 [Compound 72, 1-N′-[5-Fluoro-6-[6-(1H-imidazol-2-yl)-7-methoxyquinolin-4-yl]oxypyridin-3-yl]-1-N-(4-fluorophenyl)cyclopropane-1,1-dicarboxamide]
